Experimental data reported in patent US9546129B2, “DTPA prodrugs, compositions thereof, and methods of using the same” (priority 2012, dated 2017).

Tested on: ^241Am contaminated rats
Assay: C2E2 single dose ^241Am decorporation in rats (IM contamination)
Assay type: in vivo, Sprague Dawley rat
Conditions: for Cage Wash ^241Am / Feces ^241Am / Liver burden / Total Decorporation / Urine ^241Am: single dose 24 h after IM ^241Am, 7 days
Experimental: This study was to assess the efficacy of a single oral gavage dose of C2E2 in ^241Am contaminated rats. A 200 μL aliquot was withdrawn from a stock solution of ^241Am nitrate (0.1 mCi in 5 mL 1 M HNO3), evaporated to dryness, dissolved in concentrated HNO3 (15 M, 5 mL) then evaporated to dryness and dissolved in dilute HNO3 (0.1 M, 8 mL) to form the injection solution. Groups of 4 female Sprague-Dawley rats were contaminated with 250 nCi of ^241Am nitrate by IM injection ([…]) then were administered single doses of C2E2 by gavage at 200, 600, or 1000 mg/kg under ad lib feeding conditions utilizing a 10% w/w solution in sterile water (dose volumes were 2, 6, and 10 mL/kg, for the 200, 600, and 1000 mg/kg doses, respectively). For the fasted component of the study, the animals were fasted 24 hours before treatment then for 2 hours post drug administration. Control groups with ad lib access to food and water were either untreated or administered an IV dose of the calcium salt of DTPA (Ca-DTPA) at 14 mg/kg (target dose volume of 0.7 mL/kg and concentration of 20 mg/mL). Treatment was administered 1 day after contamination. All animals were euthanized 7 days after contamination and the following tissues were collected: liver, both kidneys, both femurs as well as the ipsilateral and the contralateral hind leg muscle tissue and the pelt from the injection site. Urine and feces were collected from the time of contamination through euthanasia. Cage washings were also collected at the end of the study and considered part of total urine collection. Two aliquots (100 μL) of the injection solution were removed and ^241Am gamma activity was determined using radiomatic detection. The average of these standards is the injected dose used for all animals. All tissues and samples were counted in a similar manner. Americium content was expressed as a percentage of the injected dose. Overall recovery of radioactivity across all groups in this study was approximately 90%. […] The primary route by which both DTPA and C2E2 enhanced elimination of ^241Am occurred was by urinary clearance. […] Fecal clearance of ^241Am was not altered by feeding status, an observation that is consistent with the similar liver burden between the two groups at the end of the study. […] As with DTPA, enhanced decorporation by C2E2 occurred through enhanced urinary clearance.
Male and female Sprague Dawley rats (n=4/gender/dose) were administered single oral doses of diethylenetriaminepentaacetic acid diethyl ester (C2E2) by gavage 24 hours after intramuscular contamination with ^241Am(NO3)3 (250 nCi) under ad libitum and fasted conditions. Animals received single oral nominal doses of 200, 600, or 1000 mg/kg C2E2. Untreated animals and animals treated with an intravenous dose of Ca-DTPA ([…]) 24 hours after contamination served as controls; only ad libitum conditions were used for control animals. Total radionuclide decorporation and radionuclide tissue burden were evaluated seven days after contamination.
Male and female Sprague Dawley rats were contaminated with ^241Am(NO3)3 (0.25 μCi) by intramuscular injection (0.1 mL, 0.1 M HNO3) into the right hind leg, under isoflurane anesthesia. Immediately after injection, body weights were recorded (Day 0 weight) and animals were placed in individual metabolic cages.
Approximately eight hours after contamination—and 16 hours before test article administration—rats assigned to the Fasted groups had access to food restricted by removing the food chamber from their metabolic cages and collecting all loose chow from their housing chambers. Food chambers were replaced 1 hour after oral gavage treatment, restoring access to food. At all other times all animals had ad libitum access to food.
Male and female Sprague-Dawley rats assigned to test groups each received a single oral gavage dose of 0, 200, 600, or 1000 mg/kg of C2E2 utilizing a 10% w/w solution in water 24 hours after contamination. […]

[1] = C2E2 200 mg/kg gavage, ad lib, female rats
[2] = C2E2 200 mg/kg gavage, fasted, female rats
[3] = C2E2 600 mg/kg gavage, ad lib, female rats
[4] = C2E2 600 mg/kg gavage, fasted, female rats
[5] = C2E2 1000 mg/kg gavage, ad lib, female rats
[6] = C2E2 1000 mg/kg gavage, fasted, female rats

## CCOC(=O)CN(CCN(CCN(CC(=O)O)CC(=O)OCC)CC(=O)O)CC(=O)O [C2E2, 6,9-bis(carboxymethyl)-3-(2-ethoxy-2-oxoethyl)-11-oxo-12-oxa-3,6,9-triazatetradecan-1-oic acid]
[1]
  Cage Wash ^241Am: 1.8 ± 0.5%
  Feces ^241Am: 5.9 ± 0.8%
  Liver burden: 17.7 ± 2.1 % injected
  Total Decorporation: 14.4 ± 0.7 % injected
  Urine ^241Am: 6.7 ± 1.5%
[2]
  Cage Wash ^241Am: 1.3 ± 0.5%
  Feces ^241Am: 4.7 ± 2.1%
  Liver burden: 20.9 ± 3.5 % injected
  Total Decorporation: 14.3 ± 3.2 % injected
  Urine ^241Am: 8.4 ± 1.3%
[3]
  Cage Wash ^241Am: 2.2 ± 0.8%
  Feces ^241Am: 7.7 ± 2.0%
  Liver burden: 18.6 ± 4.5 % injected
  Total Decorporation: 22.3 ± 3.1 % injected
  Urine ^241Am: 12.4 ± 1.3%
[4]
  Cage Wash ^241Am: 2.6 ± 0.8%
  Feces ^241Am: 7.3 ± 1.5%
  Liver burden: 18.9 ± 2.3 % injected
  Total Decorporation: 24.2 ± 3.3 % injected
  Urine ^241Am: 14.3 ± 2.9%
[5]
  Cage Wash ^241Am: 3.4 ± 0.3%
  Feces ^241Am: 6.9 ± 1.7%
  Liver burden: 14.5 ± 1.5 % injected
  Total Decorporation: 23.8 ± 3.0 % injected
  Urine ^241Am: 13.5 ± 1.7%
[6]
  Cage Wash ^241Am: 4.5 ± 0.7%
  Feces ^241Am: 7.1 ± 1.3%
  Liver burden: 13.7 ± 3.1 % injected
  Total Decorporation: 31.3 ± 5.5 % injected
  Urine ^241Am: 19.8 ± 3.9%
C2E2 1000 mg/kg single oral dose vs Ca-DTPA 13.3 mg/kg iv, no equivalence analysis
  Efficacy compared with intravenous Ca-DTPA: comparable, in terms of efficacy, to an intravenous dose of Ca-DTPA (13.3 mg/kg)
Daily urinary and fecal americium, male and female rats
  Effect of fasting on efficacy of the C2E2 dose: not altered by fasting rats prior to their C2E2 treatment
Female rats
  Skeletal burden vs untreated controls (statistics): not significantly changed by C2E2 treatment
Female rats, p<0.001
  Dose with significantly enhanced decorporation vs untreated controls: above 600 mg/kg
Female rats, p<0.01
  ^241Am liver burden vs untreated controls (statistics): Only the reduction in burden following the 1000 mg/kg dose was statistically significant
Male and female rats
  Wound site retention of americium vs untreated controls (statistics): did not correspond with a significant change in tissue burden compared to untreated controls at any single C2E2 dose
Male rats
  Dose with significant reduction of estimated skeletal americium burden vs untreated controls: ≥ 600 mg/kg
  ^241Am liver burden vs untreated controls (statistics): significantly reduced compared to untreated controls at doses of 200 mg/kg (p<0.05) and 1000 mg/kg (p<0.001)
Male rats, p<0.001
  Dose with significantly increased total decorporation vs untreated controls: ≥ 600 mg/kg
